Data set [1] can be described thus: β-Carotene concentration in culture medium during incubation. The class given is physicochemical. As to conditions: 24 hours of incubation, irrespective of the presence of cells. As to the method:
β-carotene-containing medium was prepared as follows. Fresh all-E-β-carotene (DSM Nutritional Products, Kaiseraugst, Switzerland) stock solution in THF (containing 0.025% BHT; Fluka Chemie A G, Switzerland) was diluted 1:2 with ethanol and added to cell culture medium to a final concentration of 1.5 μM β-carotene. The solvent concentration in the medium was 0.5% for all treatments. β-carotene-containing medium was prepared fresh for the daily medium changes.

A further data set relates to non-melanoma skin cancer. To be noted: clinical intervention trials; cited from earlier work.
A further data set deals with photosensitization. To be noted: EPP patients, 180 mg/d; cited from earlier work.
The next data set concerns integrinα6. Nature of the data set: QRT-PCR confirmation of gene regulation in HaCaT cells. The class given is cell-based, human. To be noted: β-carotene, unirradiated cells. As to the method:
(§1) FIGS. 9A-9C show β-carotene-induced inhibition of integrinα6 transcription in irradiated and unirradiated HaCaT cells (FIG. 9A) and enhancement of UVA-induced GADD34 (FIG. 9B) and GADD153 transcription (FIG. 9C). Cells were supplemented with β-carotene for 2 days prior to UVA irradiation (270 kJ/m^2) either in normal PBS or D2O-PBS. Gene expression 5 hours after irradiation was determined by quantitative real time polymerase chain reaction. (“QRT-PCR”). Values are geometric mean±standard error of three experiments.
(§2) Key gene regulation was confirmed in three independent cell irradiation experiments using TaqMan® QRT-PCR as described. In these experiments, cells were pretreated with 0.5, 1.5, or 3 μM β-carotene, to analyze for dose-dependent β-carotene effects. In addition, cells were irradiated either in D2O-containing PBS or in H2O-containing PBS, to analyze for the ^1O2 inducibility of genes.

In another data set the test system is GADD153. Described as above. The class given is cell-based, human. To be noted: 5 hours after UVA. As to the method:
as §1, §2

A further data set deals with GADD34. The description is as above. The class given is cell-based, human. As to conditions: 5 hours after UVA. The procedure:
as §1, §2

In data set [2] the test system is retinoic acid response elements (RAREs). Nature of the data set: RA-dependent reporter gene assay pGL3 (RARE)5 tk luc in HaCaT cells. The class given is cell-based, human. (In general: In a reporter assay the amount or activity of a reporter protein is the signal.)
Protocol: HaCaT cells were transiently transfected with the reporter construct pGL3 (RARE)5 tk luc, containing five DR5-type retinoic acid response elements (“RAREs”). Luciferase activity was determined after 40 hours treatment with β-carotene. Values are means±standard error from two experiments with four replicates each.
HaCaT cells were seeded at a density of 3×10^6 cells/well in 6 well plates (BD Biosciences, Basel, Switzerland) in FAD medium containing 2% NuSerum. The cells were transfected the next day using 1 μg reporter plasmid (pGL3 (RARE)5 tk luc) and 5 μl Lipofectin (1 μg/μL; Invitrogen, Basel, Switzerland) per well. The RARE is a DR5 element identical to the wild type element of the RARβ2 promoter. The spacing between the DR5 sites is 25 nucleotides. The transfections were performed for 7.5 hours in serum-free FAD medium according to the manufacturer's protocol. […] Transactivation of the reporter gene was determined after 40 hours of β-carotene treatment.
To generate the RA standard curve, 9-cis RA and all-trans RA were used together at concentrations ranging from 10^−10 to 10^−8 M each. […] Relative luciferase units (RLU) were quantified in a luminoskan reader (Thermo Labsystems, Vantaa, Finland), and corrected by protein concentrations as determined with the BCA assay (Pierce, Rockford, USA).
The subject of the next data set is skin carcinogenesis. As to conditions: supplementation, rodents; cited from earlier work.
A further data set relates to caspase-3. Put plainly: Caspase-3 activity, CaspACE Assay System. The class given is cell-based, human. The procedure:
Cells were supplemented with β-carotene for 2 days and prior to UVA irradiation (270 kJ/m^2). Caspase-3 activity was determined at 5 hours after irradiation. Values are mean±standard error of an experiment with four replicates.
Caspase-3 activity 5 hours after UVA irradiation was quantified in five separate experiments using the CaspACE™ Assay System (Promega/Catalys, Switzerland).

The subject of a further data set is sunburn cells. As to conditions: supplementation, humans; cited from earlier work.
The next data set deals with TIMP-1. Nature of the data set: ELISA of TIMP-1 release into cell culture supernatant of HaCaT cells. The class given is cell-based, human. To be noted: β-carotene, with or without UVA. As to the method: HaCaT cells were supplemented with 0.5, 1.5, or 3 μM β-carotene for 2 days prior to UVA (270 kJ/m^2) irradiation. MMP-1 and TIMP-1 secretion 24 hours after irradiation was analyzed by ELISA. Each condition was represented by three replicates in the experiment. Values are means±standard error.
Release of MMP-1, and TIMP-1 into cell culture supernatant was determined by ELISA at 24 hours after irradiation. MMP-1 and TIMP-1 release was measured using MMP-1 and TIMP ELISA from CALBIOCHEM (San Diego, Calif., USA). The ELISAs were performed according to the manufacturer's instructions.

For the compound `CC1=C(/C=C/C(C)=C/C=C/C(C)=C/C=C/C=C(C)/C=C/C=C(C)/C=C/C2=C(C)CCCC2(C)C)C(C)(C)CCC1` [β-carotene, All-E-β-carotene], the “β-carotene concentration in medium remaining” value in [1] is “approximately 50%”. For the same compound, the “prevention of non-melanoma skin cancer” value in the data set with non-melanoma skin cancer is “no significant prevention”. In addition, the symptoms of photosensitization entry in the data set with photosensitization is recorded as “alleviated the symptoms of photosensitization”. The integrinα6 transcription entry with integrinα6 is on record as “downregulation”. Further, the “UVA-induced GADD153 transcription” value with GADD153 is “enhancement”. For the same compound, the “UVA-induced GADD34 transcription” value in the data set on GADD34 is listed as “enhancement”. Moreover, the “activation of the luciferase reporter” value in [2] (1 or 3 μM β-carotene, 40 hours) is “comparable to what was achieved after treating the cells with a combination of all-trans RA and 9-cis RA at 10 nM each”. Also, the “RARE-dependent gene activation after UVA irradiation, relative to unirradiated” value in data set [2] (cells irradiated with UVA prior to measurement) is listed as “about 70%”. Moreover, in the data set on skin carcinogenesis, the skin carcinogenesis entry is listed as “reduced skin carcinogenesis”. Also, in the data set on caspase-3 (β-carotene alone, unirradiated), the caspase-3 activation result was “Neither UVA nor β-carotene alone activated caspase-3”. Further, the caspase-3 activity entry in the data set with caspase-3 (β-carotene with UVA 270 kJ/m^2, 5 hours after irradiation) was “induce caspase-3 activity in a dose-dependent manner”. For the same compound, in the data set with sunburn cells, the “number of sunburn cells” value was “did not alter the number of sunburn cells”. In addition, in the data set on TIMP-1, the TIMP-1 protein level entry is “not significantly influenced”.

The record behind these values is patent publication US20160304957A1, “TREATMENT AND MODULATION OF GENE EXPRESSION AND SKIN AGING” (DSM NUTRITIONAL PRODUCTS LTD., priority 2006, published 2016).
